Reference: patent US10813935B2, “Methods and compositions for treating drug resistance in cancer” (UNIVERSITY OF SOUTH FLORIDA, priority 2017, dated 2020)

How the values were obtained:
[1] = system: H1975, H1650 and H1299 human lung cancer cell lines (parental and drug resistant); assay: Drug sensitivity in parental and DR cell lines, Cell Titer Glo cell viability; format: cell-based
Method: To investigate drug resistance to EGFR TKIs, we developed lapatinib resistant human lung cancer cell lines as model for de novo drug resistance. To derive drug resistant (DR) cells, H1975 human lung cancer cells, that carry L858R and T790M point mutations in exons 20 and 21 of EGFR, were grown in a static concentration of lapatinib for up to 30 days. We also developed EGFR TKI resistant H1650 and H1299 human lung cancer cell lines to confirm any potential findings in cell lines with different EGFR mutations, thereby enhancing the reproducibility and relevance of the work. The drug sensitivity of the parental and DR cells on both the monolayer and the 3D scaffold were determined by testing a panel of standard-of-care chemotherapeutics along with EGFR TKIs. Drug sensitivity in parental- and DR-cell lines were determined. Cells were treated in triplicates with indicated concentrations of the identified drug for 72 hours in monolayer cultures and for 48 hours in scaffold cultures. For cells grown on the scaffold, drugs were added on day 3, as compared to 24 hours for monolayer. Cell viability was determined using Cell Titer Glo assay (Promega). Average luminescence as a percentage of control in lapatinib treated cultures on the monolayer (Blue) and the scaffold (Red) is shown. Experiments were repeated at least two times. […]

p-EGFR = assay: Western blot of whole cell lysates (cleaved EGFR, p-EGFR, CYP51A1) after drug treatment; format: cell-based, human; details: treated 48 hours
Method: Cells were treated with lapatinib or ketoconazole for 48 hours. The expression of cleaved EGFR, p-EGFR, CYP51A1 were examined using western blotting of the whole cell lysates. β-Actin was included as a loading control.

H1650 cells = assay: Development of lapatinib resistance in parental H1650 cells, bright field microscopy; format: cell-based, human; details: drugs added at plating, 72 hours
Method: Drug-resistant cells (DR) were compared to parental cell lines. 500,000 H1650 cells were plated in 1 well of a 6-well plate and treated with the indicated drugs at the time of plating. They were allowed to grow for 72 hours.

Nc1ccn([C@@H]2O[C@H](CO)[C@@H](O)C2(F)F)c(=O)n1 [gemcitabine]
resistance of EGFR TKI resistant cells to other anti-cancer agents [1]: resistant

CC(=O)O[C@H]1C(=O)[C@@]2(C)[C@H]([C@H](OC(=O)c3ccccc3)[C@]3(O)C[C@H](OC(=O)[C@H](O)[C@@H](NC(=O)c4ccccc4)c4ccccc4)C(C)=C1C3(C)C)[C@]1(OC(C)=O)CO[C@@H]1C[C@@H]2O [taxol]
resistance of EGFR TKI resistant cells to other anti-cancer agents [1]: resistant

CC(=O)N1CCN(c2ccc(OCC3COC(Cn4ccnc4)(c4ccc(Cl)cc4Cl)O3)cc2)CC1 (centres unmarked) [ketoconazole]
p-EGFR in the H1650-DR cells (p-EGFR; H1650-DR cells, western blot): inhibited p-EGFR | EGFR downstream signaling (p-EGFR; western blot of whole cell lysates): induced lowering of EGFR downstream signaling | development of lapatinib resistance in parental H1650 cells (H1650 cells): alleviated development of lapatinib resistant
